# Assay results taken from patent US5266562A, “Anti-inflammatory agents” (The United States of America as represented by the …, priority 1987, dated 1993).
# Where two headings read alike, the source gives them in different places.
# B1: Uteroglobin: protein purified from uterine washings of rabbits primed with chorionic gonadotropin; also known as blastokinin (protein, UniProt P02779 22-91, looked up)
# Uteroglobin: GICPRFAHVIENLLLGTPSSYETSLKEFEPDDTMKDAGMQMKKVLDSLPQTTRENIMKLTEKIVKSPLCM
# How the values were obtained:
# [1] = system: prostanoid levels (PGE2, PGF2α) in skin lesions; assay: Prostanoid levels (radioimmunoassay) in tissues injected with phorbol myristate acetate; type: in vivo, rabbit; conditions: for Effect on tissue prostanoid levels (PGE2, PGF2α) (in words): rabbit skin lesions injected with phorbol; for Prostaglandin levels PGE2 / Prostaglandin levels PGF2 α: rabbit skin lesions, phorbol 10 μM then test substance 20 μM 0.1 ml after 5 minutes, mean of two experiments; for Prostaglandin levels PGF2 α: ND = Nondetectable
# Experimental: These tissues were used for histopathological analysis.
# A similar groups of animals were sacrificed 48 hours after the injections were made and the skin lesions were dissected out and homogenized in cold phosphate buffered saline (PBS, pH 7.4). The homogenate was centrifuged at 2500×g for 10 minutes at 4° C. The supernatants were frozen at -70° C. until assayed for prostaglandins.
# [2] = system: phorbol myristate acetate induced inflammation on rabbit skin; conditions: for Histopathology: inflammatory cells in phorbol injected skin (in words) / Effect on phorbol induced erythema and induration (in words) / Erythema (mm), Phorbol injected / Induration (mm), Phorbol injected: rabbit skin; for Histopathology: inflammatory cells in phorbol injected skin (in words): 20 μM injected after phorbol, FIG. 3; for Erythema (mm), Phorbol injected / Induration (mm), Phorbol injected: phorbol myristate acetate 10 μM, 0.1 ml, test substance 20 μM, mean ± SEM
# Experimental: Animals: Virgin New Zealand rabbits weighting 3-3.5 Kg were used for all experiments. These animals were housed in separate cages and provided with food and water ad libitum. A daily schedule of 12 hours light and 12 hours darkness was maintained throughout the experimental period.
# Induction of inflammation and the effect of uteroglobin: The dorsal skin of rabbits was shaved and 1/2 square inch areas demarcated lightly with a felt tip marker pen. […] The demarcated areas were used for identifying the locations where phorbol, carragennin, or other test substances were injected. Using a 25 gauge needle and a tuberculin syringe (1 cc), phorbol myristate acetate solution (10 mM) was injected into all areas, except for two, where no injections were given and two other areas where the solvent of phorbol myristate, dimethyl sulfoxide (DMSO), was injected alone. Various test substances were injected on one side of the vertebral column and the opposite side was used for controls. Thus, in this system a comparison of phorbol induced inflammation with the effects of various test substances could easily be made. These areas were observed daily and the diameter of the erythema and induration for each lesion was measured by the same observer. […] These tissues were used for histopathological analysis.
# [3] = equimolar concentrations, concentration not given
molecule,measurement,setting,value
C[C@@H]1C[C@H]2[C@@H]3CCC4=CC(=O)C=C[C@]4(C)[C@@]3(F)[C@@H](O)C[C@]2(C)[C@@]1(O)C(=O)CO [Dexamethasone],"Effect on tissue prostanoid levels (PGE2, PGF2α) (in words)",[1],dramatically reduced these prostanoid levels
same,Prostaglandin levels PGE2,[1],106 pg/mg protein
same,Prostaglandin levels PGF2 α,[1],88 pg/mg protein
same,Histopathology: inflammatory cells in phorbol injected skin (in words),[2],reduced the density of these inflammatory cells
same,Effect on phorbol induced erythema and induration (in words),[2]; [3],dramatically reduced both erythema as well as induration
same,"Erythema (mm), Phorbol injected",[2],10.5 ± 1.2 mm
same,"Induration (mm), Phorbol injected",[2],8.1 ± 2.0 mm
CCCCC/C=C\C/C=C\C/C=C\C/C=C\CCCC(=O)O [arachidonic acid],Erythema and induration induced by the substance itself (in words),"[2]; rabbit, in vivo",induced some erythema and induration
Myoglobin,Histopathology: inflammatory cells in phorbol injected skin (in words),[2],did not have any inhibitory effect
same,Effect on phorbol induced erythema and induration (in words),[2]; [3],did not have any suppressive effect
B1,"Effect on tissue prostanoid levels (PGE2, PGF2α) (in words)",[1],dramatically reduced these prostanoid levels
same,Prostaglandin levels PGE2,[1],94 pg/mg protein
same,Prostaglandin levels PGF2 α,[1],58 pg/mg protein
same,Effect on phorbol induced erythema and induration (in words),"[2]; 10 μM, FIG. 4 dose response",Significant inhibitory effect
same,Effect on phorbol induced erythema and induration (in words),"[2]; 20 μM, FIG. 4 dose response",most dramatic effect
same,Effect on phorbol induced erythema and induration (in words),[2]; [3],dramatically reduced both erythema as well as induration
same,"Erythema (mm), Phorbol injected",[2],6.4 ± 0.5 mm
same,"Induration (mm), Phorbol injected",[2],5.1 ± 0.8 mm
